Data taken from US20260174862A1, “PHARMACEUTICAL COMPOSITION COMPRISING PRMT5 INHIBITOR AND PD-1/PD-L1 INHIBITOR” (APEIRON THERAPEUTICS (HONG KONG) LTD., priority 2024, published 2026).

Tested on: DuNN MTAP KO cells
Test: In vivo pharmacodynamic study in C3H mouse model of tibial orthotopic xenograft with DuNN MTAP KO cells
Conditions: for Tumor volume (mean): tibial orthotopic DuNN MTAP KO tumor, compound D 1 mg/kg PO QD, PD-1 antibody 5 mg/kg I.P. QW, n=6
Procedure: Example 1: In Vivo Pharmacodynamic Study of Compound D in C3H Mouse Model of Tibial Orthotopic Xenograft with DuNN MTAP KO Cells
Cell culture: […] DuNN MTAP KO cells (provided by the Experimental Animal Center of Shanghai First People's Hospital) were cultured in vitro monolayer under the conditions of adding 10% fetal bovine serum and 1% Antibiotic-Antimycotic to DMEM medium, and culturing in a 5% CO2 incubator at 37° C. Pancreatin-EDTA was used twice a week for routine digestion and passage. When the cell saturation is 80%-90% and the number of cells reached the requirement, the cells were collected, counted, and inoculated.
Animals: C3H normal mice, female, 4-6 weeks old, weighing 18-22 g. A total of 30 animals were required (24 enrolled, surplus).
Tumor inoculation: DUNN cells were digested with 0.25% pancreatin-EDTA solution to make them into a single cell suspension, washed with PBS buffer and the cell density was adjusted to 1×10^7/ml for further use. On the day of the experiment, mice were intraperitoneally injected with 0.5% sodium pentobarbital solution at a dose of 40 mg/kg to anesthetize them. A bone hole with a diameter of about 1 mm was drilled in the upper end of the right hindlimb tibia with a 1 ml syringe to reach the marrow cavity. Be careful not to penetrate the contralateral cortical bone and cause fractures or bleeding. A 1 ml syringe and a 25 G needle were used to draw the DUNN cell suspension and it was slowly injected into the tibial bone marrow cavity of the experimental group mice at a dose of 30 μl. Be careful not to cause cell reflux or leakage. After injection, the surgical field was disinfected with 75% alcohol, and the mice were returned to their cages, covered with sterile dressings, kept warm until they woke up, and then continued to be housed for observation. Randomized dosing began when the average tumor volume reached about 150 mm^3. At the end of the experiment, mice were intraperitoneally injected with 0.5% sodium pentobarbital solution at a dose of 120 mg/kg to euthanize them. Their tibia and tumor tissues were removed, fixed with 10% formaldehyde, paraffin sections were made, stained with HE, and the histological morphology and invasion of the tumors were observed under a microscope. The expression of proliferation indicators such as Ki-67 and PCNA in tumor cells was detected by immunohistochemistry.
Administering volume: 10 μL/g based on the weight of mice. If the weight loss exceeds 15%, stop administering immediately and resume it after the weight loss returns to less than 10%.
Animal grouping: Animals were weighed before administration and tumor volumes were measured. Randomized grouping was based on tumor volumes (randomized block design).
Experimental indicators: were used to examine whether tumor growth was inhibited, delayed or cured. The tumor diameter was measured twice a week with a vernier caliper. The calculation equation for tumor volumes is: V=0.5a×b^2, where a and b represent the major and minor diameters of the tumor, respectively.
The antitumor efficacy of the compound was evaluated by TGI (%) or tumor proliferation rate T/C (%). TGI (%) reflects the tumor growth inhibition. Calculation of TGI (%): TGI (%)=[1−(average tumor volume at the end of administering in a treatment group-average tumor volume at the start of administering in this treatment group)/(average tumor volume at the end of treatment in the solvent control group-average tumor volume at the start of treatment in the solvent control group)]×100%.
Tumor proliferation rate T/C (%): The calculation equation is as follows: T/C (%)=Ti/Vi×100%. Where Vi is the average tumor volume of the solvent control group at a certain measurement, and Ti is the average tumor volume of the treatment group at the same measurement. […]

## CN(C(=O)c1cc2c(cc1F)nc(N)c1cncn12)[C@@H]1COc2cc(C(F)(F)F)ccc21 [Compound D]
25-day study, compound D 1 mg/kg oral once daily, anti-PD-1 antibody 5 mg/kg intraperitoneal, C3H mice, DUNN tibial orthotopic model
  tumor growth inhibition (TGI): 30.9%
Day 0, C3H mice
  Tumor volume (mean): 21.6 mm^3
Day 4, C3H mice
  Tumor volume (mean): 35.7 mm^3
Day 7, C3H mice
  Tumor volume (mean): 41.3 mm^3
Day 10, C3H mice
  Tumor volume (mean): 52.2 mm^3
Day 14, C3H mice
  Tumor volume (mean): 68.7 mm^3
Day 18, C3H mice
  Tumor volume (mean): 85.2 mm^3
Day 21, C3H mice
  Tumor volume (mean): 136.9 mm^3
Day 25, C3H mice
  Tumor volume (mean): 225.6 mm^3
one-way ANOVA, 25-day study, same doses
  statistical significance (P) vs. control: did not reach statistical significance
